In patent publication US11261177B2, “Benzoxazinone derivatives useful as herbicides” (REDAG CROP PROTECTION LTD, priority 2017, dated 2022) one finds pest or weed control and herbicidal activity data, which are given here for 1 compound.

What all share (format): in vivo
The subject of assay [1] is Lolium perenne. In words: Pre-emergence herbicidal assay, 96 cell trays, glasshouse. Particulars: 168 h, second trial (Table 2), Lollium, assessed 7 days after treatment, read-out: % control of plant growth. The method in brief:
(§1)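 Efficacy is expressed as % control of plant growth, judged 7 days after application. Application: soil surface 1 day post-sowing (pre) or foliar spray at two weeks (post), at 0.2, 1 or 5 kg/ha.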

The subject of assay [2] is Stellaria media—Chickweed. The description is as above. Particulars: 168 h, second trial (Table 2), assessed 7 days after treatment, read-out: % control of plant growth. A digest of the protocol: as §1
The test system of assay [3] is Lolium perenne. In words: Post-emergence herbicidal assay, 96 cell trays, glasshouse. Particulars: 168 h, second trial (Table 2), Lollium, assessed 7 days after treatment, read-out: % control of plant growth. A digest of the protocol: as §1
Assay [4] deals with Stellaria media—Chickweed. Described as above. The note with it: 168 h, second trial (Table 2), assessed 7 days after treatment, read-out: % control of plant growth. The method in brief: as §1
The test system of assay [5] is 2 weed species (Stellaria media—Chickweed and Lolium perenne). In words: Herbicidal activity screen, summary in words over both weed species. The note with it: pre- and post-emergence, 0.2, 1 and 5 kg/ha. The protocol: The compounds were screened at three concentrations (0.2, 1 and 5 kg/ha) against 2 weed species (Stellaria media—Chickweed and Lolium perenne). The seeds were sown in the cells of 96 cell trays (4-6 seeds per cell). For the pre-emergence assay, 75 μL of a suspension of the test compound, at the above doses, was added on top of the soil 1 day after sowing. For the post-emergence assay, the seedlings were sprayed with 200 μL of a suspension of the test compound two weeks after sowing. The formulation used is 25% acetone and 75% water/0.01% Tween 20. Each treatment was replicated three times. The plants were kept in a glasshouse (uncontrolled conditions) and assessed 7 days after treatment. A small number of compounds were tested in a first trial. A larger number of compounds were tested in a second trial. The assessment was based on the % control of plant growth in each cell.

Molecules are shown by their SMILES.

With `C#CCN1C(=O)C2(CC2)Oc2cc(F)c(N3C(=O)C4CCCCN4C3=O)cc21` (stereo not shown) [Example 47], the pest or weed control at 200 g/ha in the assay on Lolium perenne [1] (0.2 kg/ha) fell in the range of 20 to 80%; in assay [2] (0.2 kg/ha) it was 80 to 100%; in the assay on Lolium perenne [3] (0.2 kg/ha) it was 80 to 100%; in assay [4] (0.2 kg/ha) it was 80 to 100%. Further, the pest or weed control at 1000 g/ha (with Lolium perenne [1] (1 kg/ha); in assay [2] (1 kg/ha); in the assay with Lolium perenne [3] (1 kg/ha); in assay [4] (1 kg/ha)) was 80 to 100% in each case. Moreover, the pest or weed control at 5000 g/ha (with Lolium perenne [1] (5 kg/ha); in assay [2] (5 kg/ha); with Lolium perenne [3] (5 kg/ha); in assay [4] (5 kg/ha)) was 80 to 100% each time. In assay [5], the herbicidal activity entry is given as “excellent herbicidal activity against all tested species”.
